The results in this text go back to patent US20240182525A1, “NOVEL BICYCLIC COMPOUND, OPTICAL ISOMER THEREOF OR PHARMACEUTICALLY ACCEPTABLE SALT THEREOF, USE THEREOF, AND PREPARATION METHOD THEREFOR” (KOREARESEARCH INSTITUTE OF BIOSCIENCE AND BIOTECHNOLOGY, priority 2021, published 2024).

One data set can be described thus: Cytotoxicity assay, 4T1. The format is cell-based. The following applies: mouse, 4T1 cells (breast cancer); 4T1, 48 hours, maximum concentration 100 μM. The protocol: (§1) To measure the cytotoxicity of the compound represented by Chemical Formula 1 (Chemical Formula 1-1), toxicity was measured in mouse preadipocyte 3T3-L1 cell line, human malignant melanoma A375 cell line, mouse malignant melanoma B16F10 cell line, human oral cancer MDA-MB-435 cell line, mouse breast cancer 4T1 cell line, human breast cancer MCF7 cell line, human brain cancer U87MG cell line, human glioblastoma U373MG cell line, human cervical cancer HeLa cell line, mouse embryonic fibroblast (MEF) cell line, human embryonic kidney HEK293T cell line (Korea Cell Line Bank). First, 1×10^4 cells were divided into 200 μl each in a 96-well plate using Dulbecco's Modified Eagle's Medium (DMEM) supplemented with 10% fetal bovine serum (FBS), […] streptomycin, and 50 U/ml penicillin, while maintaining various cells at 37r in an atmosphere of 5% CO2. The cells were treated with the compound of Chemical Formula 1-1 of the present invention at a maximum concentration of 100 μM and cultured for 48 hours under the same culture conditions. After the incubation, the culture media were removed and the cytotoxicity test results were confirmed (Table 2 and FIG. 3 below).

Data set [1] relates to MC3T3-E1 cells. The data set is described as follows: ALP activity analysis in MC3T3-E1 cell lysate. Format: cell-based, mouse. The conditions noted are these: 5, 10, and 20 νM, 7 days, absorbance 405 nm, FIG. 16. As for the experimental part:
In order to analyze the effect of the compound of Chemical Formula 1 according to the present invention on ALP activity, MC3T3-E1 cells, which are mouse osteoblasts, were inoculated into a 96-well plate at a concentration of 5×10^3 cell/well, and incubated overnight in growth media containing alpha-minimum essential media (alpha-MEM, JBI #008-53) supplemented with 10% fetal bovine serum (FBS, Gibco #16000, USA) and 1× antibiotics (Gibco #15240062, USA). As a negative control, an alpha minimum essential medium containing 10% FBS was used. As a positive control, 100 μg/ml of ALP-activating ascorbic acid and 10 mM of β-glycerophosphate were mixed, and the positive control was exchanged with media added with 5, 10, and 20 νM of Chemical Formula 1-1 (6-J) on Day 3, and treated for 7 days. After 7 days, the media were removed and the cells were washed with PBS, and the cultured MC3T3-E1 cells were lysed with 0.1% TritonX-100 (in PBS) solution and centrifuged to obtain only the supernatant. A predetermined amount of supernatant and ALP were added and reacted for 30 minutes, and then the absorbance was confirmed at 405 nm.

The next data set concerns mouse 3T3-L1 cell line. The data set is described as follows: Adipogenesis inhibitory effect test, Oil Red O staining. Format: cell-based. The protocol:
The adipogenesis inhibitory activity of Chemical Formula 1 according to the present invention was measured through Oil Red O staining in mouse 3T3-L1 cell line. First, 3T3-L1 cells were placed in a 48-well plate (1×10^4 cell/well) and cultured for 24 hours in a 37° C. CO2 incubator. The next day, the cells were replaced with the normal culture media (Undifferentiated media; UND) and the differentiation induction medium (Differentiation media; DM), respectively, followed by treatment with 2.5-10 μM of Chemical Formula 1-1 for 48 hours. Then, the cells were replaced with the normal culture media (Maintainment media; MM), and cultured with 2.5-10 μM of Chemical Formula 1-1 for 72 hours, and then treated with Oil Red O.
In addition, the same experiment was conducted with the compound of Chemical Formula 1-1 at a fixed concentration of 7.5 μM and Wnt3a-conditional media at 10-2.5%.

Data set [2] can be described thus: Cytotoxicity assay, MDA-MB-435. The following applies: human, MDA-MB-435 cells (printed as oral cancer); MDA-MB-435, 48 hours, maximum concentration 100 μM. Format: cell-based. As for the experimental part: as §1
The subject of data set [3] is adipocyte differentiation-associated proteins in the 3T3-L1 cell line. The data set is described as follows: Western blotting of adipocyte differentiation-associated proteins. The format is cell-based, mouse. The conditions noted are these: 7.5 μM, FIG. 10. The protocol:
Additionally, in order to verify the adipogenesis inhibitory ability of the Chemical Formula 1 according to the present invention, the level of adipocyte differentiation-associated proteins in the 3T3-L1 cell line was measured. The 3T3-L1 cells were cultured in a 6-well plate (2×10^5 cell/well), and the next day, the cells were replaced with normal culture media (Undifferentiated media; UND) and differentiation induction media (Differentiation media; DM), respectively, followed by treatment with the compound of Chemical Formula 1-1 at 7.5 μM for 48 hours, and then the cells were replaced with new normal culture media (Maintaining media; MM). When replacement with normal culture media, the cells were treated with 7.5 μM of Chemical Formula 1-1, and cultured for 72 hours more, followed by Western blotting.
A general note: Immunoblotting shows a protein as a band on a membrane.

Data set [4] concerns MC3T3-E1 cells. The data set is described as follows: Alkaline phosphatase (ALP) staining of MC3T3-E1 cells. Format: cell-based, mouse. The conditions noted are these: 5, 10, and 20 νM, 7 days, FIG. 15. An excerpt: In order to analyze the effect of the compound of Chemical Formula 1 according to the present invention on ALP activity, the morphology of MC3T3-E1 cells according to the treatment with the compound of Chemical Formula 1 according to the present invention was confirmed by alkaline phosphatase (ALP) staining of the MC3T3-E1 cell line.
In the present Example, the effect of Chemical Formula 1-1 on the activity of alkaline phosphatase (ALP), which is one of the representative markers of osteoblast differentiation, was measured. MC3T3-E1 cells, which are mouse osteoblasts, were inoculated into a 96-well plate at a concentration of 5×10^3 cell/well, and incubated overnight in growth media containing alpha-minimum essential media (alpha-MEM, JBI #008-53) supplemented with 10% fetal bovine serum (FBS, Gibco #16000, USA) and 1× antibiotics (Gibco #15240062, USA). As a negative control, an alpha minimum essential medium containing 10% FBS was used. As positive controls, 100 μg/ml of ALP-activating ascorbic acid and 10 mM of β-glycerophosphate were mixed, and the positive controls were exchanged with media added with 5, 10, and 20 νM of Chemical Formula 1-1 on Day 3, and treated for 7 days. After 7 days, the media were discarded, and the cells were washed with PBS, and fixed with 10% formalin for 1 minute. […]

By IC50 is commonly meant the concentration that gives 50% inhibition. For the compound `CC(C)CC1NC(=O)C2CCCN2C(=O)C(C(O)C(C)C)NC(=O)CNC(=O)C(C(C)O)NC(=O)C2NC(=O)C(NC(=O)/C=C/c3ccccc3C(O)C(C)O)C(C)OC(=O)C(CC(N)=O)NC(=O)C(NC(=O)C(O)NC1=O)C(O)c1ccc(O)c(c1)Oc1ccc2cc1` (centres unmarked) [Chemical Formula 1-1], the IC50 at 48 h in “Cytotoxicity assay, 4T1” is greater than 100 µM; in data set [2], greater than 100 µM. In the data set on MC3T3-E1 cells [1], the ALP activity result is reported as “increased”. Further, the adipogenesis inhibitory activity entry with mouse 3T3-L1 cell line (2.5-10 μM, Oil Red O, FIG. 8) is “exhibited the adipogenesis inhibitory activity in a concentration-dependent manner”; with mouse 3T3-L1 cell line (fixed 7.5 μM with Wnt3a-conditional media at 10-2.5%, FIG. 9), “excellent”. In addition, the “level of adipogenesis induction-associated proteins” value in data set [3] (compound alone, differentiated adipocytes) was “lower protein levels”; in data set [3] (simultaneous treatment with Wnt3a-conditional media (2.5%)) it was “lower protein levels”. For the same compound, the “alkaline phosphatase staining (ALP) positive cells” value in the data set with MC3T3-E1 cells [4] is “strongly stained in a concentration-dependent manner”.
